# Measurements taken from PubChem BioAssay (NCI).
#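 Results reflect a 48-hour exposure of cells in 96-well plates to compound at five concentrations. The concentration for full growth arrest is given as TGI.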
# Key:
# Experiment in all cases: NCI-60 cell line screen, 48 h
# LOX IMVI melanoma = tested on: LOX IMVI melanoma
# IGROV1 ovarian = tested on: IGROV1 ovarian
# MOLT-4 leukemia = tested on: MOLT-4 leukemia
# UACC-257 melanoma = tested on: UACC-257 melanoma
# COLO 205 colon = tested on: COLO 205 colon
# SK-MEL-2 melanoma = tested on: SK-MEL-2 melanoma
# MDA-MB-231 breast = tested on: MDA-MB-231 breast
# SNB-75 CNS = tested on: SNB-75 CNS
# OVCAR-5 ovarian = tested on: OVCAR-5 ovarian
# 786-0 renal = tested on: 786-0 renal
# UACC-62 melanoma = tested on: UACC-62 melanoma
# HS 578T breast = tested on: HS 578T breast
# BT-549 breast = tested on: BT-549 breast
# SK-MEL-5 melanoma = tested on: SK-MEL-5 melanoma
# SR leukemia = tested on: SR leukemia
# ACHN renal = tested on: ACHN renal
# NCI-H522 lung = tested on: NCI-H522 lung
# RPMI-8226 leukemia = tested on: RPMI-8226 leukemia
# TK-10 renal = tested on: TK-10 renal
# NCI-H226 lung = tested on: NCI-H226 lung
# NCI/ADR-RES ovarian = tested on: NCI/ADR-RES ovarian
# UO-31 renal = tested on: UO-31 renal
# SN12C renal = tested on: SN12C renal
# HCC-2998 colon = tested on: HCC-2998 colon
# SK-OV-3 ovarian = tested on: SK-OV-3 ovarian
# SNB-19 CNS = tested on: SNB-19 CNS
# NCI-H460 lung = tested on: NCI-H460 lung
# OVCAR-8 ovarian = tested on: OVCAR-8 ovarian
# OVCAR-3 ovarian = tested on: OVCAR-3 ovarian
# PC-3 prostate = tested on: PC-3 prostate
# SF-539 CNS = tested on: SF-539 CNS
# CCRF-CEM leukemia = tested on: CCRF-CEM leukemia
# SK-MEL-28 melanoma = tested on: SK-MEL-28 melanoma
# M14 melanoma = tested on: M14 melanoma
# HCT-116 colon = tested on: HCT-116 colon
# EKVX NSCLC = tested on: EKVX NSCLC
# U251 CNS = tested on: U251 CNS
# MDA-MB-435 = tested on: MDA-MB-435
# K-562 leukemia = tested on: K-562 leukemia
# HCT-15 colon = tested on: HCT-15 colon
# RXF 393 renal = tested on: RXF 393 renal
# HOP-62 NSCLC = tested on: HOP-62 NSCLC
# SF-295 CNS = tested on: SF-295 CNS
# SW-620 colon = tested on: SW-620 colon
# NCI-H23 lung = tested on: NCI-H23 lung
# KM12 colon = tested on: KM12 colon
# SF-268 CNS = tested on: SF-268 CNS
# MALME-3M melanoma = tested on: MALME-3M melanoma
# MCF7 breast = tested on: MCF7 breast
# A549 NSCLC = tested on: A549 NSCLC
# MDA-N = tested on: MDA-N
# OVCAR-4 ovarian = tested on: OVCAR-4 ovarian
# DU-145 prostate = tested on: DU-145 prostate
# HT29 colon = tested on: HT29 colon
# HL-60(TB) leukemia = tested on: HL-60(TB) leukemia
# HOP-92 NSCLC = tested on: HOP-92 NSCLC
# A498 renal = tested on: A498 renal
# CAKI-1 renal = tested on: CAKI-1 renal
# T-47D breast = tested on: T-47D breast
compound,measurement,setting,value
O=C(CCCN1CCC(Nc2ccccc2)(c2nnnn2C2CCCCC2)CC1)c1ccc(F)cc1,TGI,LOX IMVI melanoma,> 100 µM
same,TGI,IGROV1 ovarian,23.2 µM
same,TGI,MOLT-4 leukemia,46.2 µM
same,TGI,UACC-257 melanoma,6.65 µM
same,TGI,COLO 205 colon,4.77 µM
same,TGI,SK-MEL-2 melanoma,23.7 µM
same,TGI,MDA-MB-231 breast,24.2 µM
same,TGI,SNB-75 CNS,21.9 µM
same,TGI,OVCAR-5 ovarian,19.6 µM
same,TGI,786-0 renal,15.9 µM
same,TGI,UACC-62 melanoma,23.9 µM
same,TGI,HS 578T breast,29.2 µM
same,TGI,BT-549 breast,20.4 µM
same,TGI,SK-MEL-5 melanoma,3 µM
same,TGI,SR leukemia,> 100 µM
same,TGI,ACHN renal,16.7 µM
same,TGI,NCI-H522 lung,19.3 µM
same,TGI,RPMI-8226 leukemia,25.1 µM
same,TGI,TK-10 renal,26.1 µM
same,TGI,NCI-H226 lung,36.5 µM
same,TGI,NCI/ADR-RES ovarian,> 100 µM
same,TGI,UO-31 renal,12.8 µM
same,TGI,SN12C renal,41 µM
same,TGI,HCC-2998 colon,32.1 µM
same,TGI,SK-OV-3 ovarian,26.1 µM
same,TGI,SNB-19 CNS,21.4 µM
same,TGI,NCI-H460 lung,35 µM
same,TGI,OVCAR-8 ovarian,68.3 µM
same,TGI,OVCAR-3 ovarian,24 µM
same,TGI,PC-3 prostate,24.7 µM
same,TGI,SF-539 CNS,5.66 µM
same,TGI,CCRF-CEM leukemia,44.6 µM
same,TGI,SK-MEL-28 melanoma,12.3 µM
same,TGI,M14 melanoma,3.98 µM
same,TGI,HCT-116 colon,16.4 µM
same,TGI,EKVX NSCLC,9.53 µM
same,TGI,U251 CNS,18 µM
same,TGI,MDA-MB-435,19.4 µM
same,TGI,K-562 leukemia,33.9 µM
same,TGI,HCT-15 colon,> 100 µM
same,TGI,RXF 393 renal,22.4 µM
same,TGI,HOP-62 NSCLC,21.3 µM
same,TGI,SF-295 CNS,41.8 µM
same,TGI,SW-620 colon,> 100 µM
same,TGI,NCI-H23 lung,28.8 µM
same,TGI,KM12 colon,21.5 µM
same,TGI,SF-268 CNS,9.25 µM
same,TGI,MALME-3M melanoma,27.4 µM
same,TGI,MCF7 breast,5.74 µM
same,TGI,A549 NSCLC,20.4 µM
same,TGI,MDA-N,18.1 µM
same,TGI,OVCAR-4 ovarian,20.5 µM
same,TGI,DU-145 prostate,15.5 µM
same,TGI,HT29 colon,14.6 µM
same,TGI,HL-60(TB) leukemia,29.6 µM
CC(=O)Oc1ccc2cc(Oc3ccc(Cl)c(Cl)c3)c(=O)oc2c1,TGI,LOX IMVI melanoma,59.1 µM
same,TGI,IGROV1 ovarian,> 100 µM
same,TGI,MOLT-4 leukemia,> 100 µM
same,TGI,UACC-257 melanoma,85.1 µM
same,TGI,MDA-MB-231 breast,> 100 µM
same,TGI,SNB-75 CNS,> 100 µM
same,TGI,HOP-92 NSCLC,78.8 µM
same,TGI,OVCAR-5 ovarian,> 100 µM
same,TGI,786-0 renal,52.4 µM
same,TGI,HS 578T breast,> 100 µM
same,TGI,BT-549 breast,34.4 µM
same,TGI,SK-MEL-5 melanoma,35.5 µM
same,TGI,A498 renal,65.8 µM
same,TGI,SR leukemia,> 100 µM
same,TGI,ACHN renal,72.6 µM
same,TGI,NCI-H522 lung,46.5 µM
same,TGI,RPMI-8226 leukemia,> 100 µM
same,TGI,TK-10 renal,79.2 µM
same,TGI,NCI-H226 lung,82.9 µM
same,TGI,UO-31 renal,51 µM
same,TGI,SN12C renal,54.1 µM
same,TGI,HCC-2998 colon,39.6 µM
same,TGI,SNB-19 CNS,> 100 µM
same,TGI,NCI-H460 lung,66 µM
same,TGI,OVCAR-8 ovarian,69.5 µM
same,TGI,OVCAR-3 ovarian,50 µM
same,TGI,PC-3 prostate,53.3 µM
same,TGI,SF-539 CNS,46.8 µM
same,TGI,CCRF-CEM leukemia,> 100 µM
same,TGI,SK-MEL-28 melanoma,79.3 µM
same,TGI,M14 melanoma,> 100 µM
same,TGI,HCT-116 colon,39.9 µM
same,TGI,EKVX NSCLC,80.8 µM
same,TGI,U251 CNS,41.5 µM
same,TGI,K-562 leukemia,69.6 µM
same,TGI,HCT-15 colon,53.8 µM
same,TGI,RXF 393 renal,65.9 µM
same,TGI,HOP-62 NSCLC,50.6 µM
same,TGI,SF-295 CNS,> 100 µM
same,TGI,SW-620 colon,> 100 µM
same,TGI,CAKI-1 renal,58.7 µM
same,TGI,NCI-H23 lung,> 100 µM
same,TGI,KM12 colon,48.7 µM
same,TGI,SF-268 CNS,> 100 µM
same,TGI,MALME-3M melanoma,94.1 µM
same,TGI,MCF7 breast,80.6 µM
same,TGI,A549 NSCLC,94.8 µM
same,TGI,MDA-N,56.6 µM
same,TGI,OVCAR-4 ovarian,> 100 µM
same,TGI,DU-145 prostate,> 100 µM
same,TGI,HT29 colon,> 100 µM
same,TGI,HL-60(TB) leukemia,> 100 µM
same,TGI,T-47D breast,99.3 µM
COc1ccc(C2=C(N)c3c(Cl)cccc3C2=O)cc1,TGI,LOX IMVI melanoma,> 100 µM
same,TGI,IGROV1 ovarian,> 100 µM
same,TGI,MOLT-4 leukemia,> 100 µM
same,TGI,UACC-257 melanoma,> 100 µM
same,TGI,COLO 205 colon,> 100 µM
same,TGI,SK-MEL-2 melanoma,> 100 µM
same,TGI,MDA-MB-231 breast,> 100 µM
same,TGI,SNB-75 CNS,> 100 µM
same,TGI,HOP-92 NSCLC,> 100 µM
same,TGI,OVCAR-5 ovarian,> 100 µM
same,TGI,786-0 renal,> 100 µM
same,TGI,UACC-62 melanoma,> 100 µM
same,TGI,HS 578T breast,> 100 µM
same,TGI,BT-549 breast,> 100 µM
same,TGI,SK-MEL-5 melanoma,> 100 µM
same,TGI,A498 renal,> 100 µM
same,TGI,ACHN renal,> 100 µM
same,TGI,NCI-H522 lung,> 100 µM
same,TGI,RPMI-8226 leukemia,> 100 µM
same,TGI,NCI-H226 lung,> 100 µM
same,TGI,NCI/ADR-RES ovarian,> 100 µM
same,TGI,SN12C renal,> 100 µM
same,TGI,HCC-2998 colon,> 100 µM
same,TGI,SK-OV-3 ovarian,> 100 µM
same,TGI,SNB-19 CNS,> 100 µM
same,TGI,NCI-H460 lung,> 100 µM
same,TGI,OVCAR-8 ovarian,> 100 µM
same,TGI,OVCAR-3 ovarian,> 100 µM
same,TGI,PC-3 prostate,> 100 µM
same,TGI,SF-539 CNS,> 100 µM
same,TGI,CCRF-CEM leukemia,> 100 µM
same,TGI,SK-MEL-28 melanoma,> 100 µM
same,TGI,M14 melanoma,> 100 µM
same,TGI,HCT-116 colon,> 100 µM
same,TGI,EKVX NSCLC,> 100 µM
same,TGI,U251 CNS,> 100 µM
same,TGI,MDA-MB-435,> 100 µM
same,TGI,HCT-15 colon,> 100 µM
same,TGI,HOP-62 NSCLC,> 100 µM
same,TGI,SF-295 CNS,> 100 µM
same,TGI,SW-620 colon,> 100 µM
same,TGI,CAKI-1 renal,> 100 µM
same,TGI,NCI-H23 lung,> 100 µM
same,TGI,KM12 colon,> 100 µM
same,TGI,SF-268 CNS,> 100 µM
same,TGI,MALME-3M melanoma,> 100 µM
same,TGI,MCF7 breast,> 100 µM
same,TGI,A549 NSCLC,> 100 µM
same,TGI,MDA-N,> 100 µM
same,TGI,OVCAR-4 ovarian,> 100 µM
same,TGI,DU-145 prostate,> 100 µM
same,TGI,HT29 colon,> 100 µM
same,TGI,HL-60(TB) leukemia,> 100 µM
same,TGI,T-47D breast,> 100 µM
CO[C@H]1C[C@H](O[C@H]2CC[C@]3(C=O)[C@H]4CC[C@]5(C)[C@@H](C6=CC(=O)OC6)CC[C@]5(O)[C@@H]4CC[C@]3(O)C2)O[C@H](C)[C@H]1O[C@@H]1O[C@H](CO)[C@@H](O)[C@H](O)[C@H]1O,TGI,IGROV1 ovarian,0.139 µM
same,TGI,MOLT-4 leukemia,1.32e-05 µM
same,TGI,COLO 205 colon,0.000867 µM
same,TGI,SK-MEL-2 melanoma,0.000435 µM
same,TGI,MDA-MB-231 breast,0.0025 µM
same,TGI,HOP-92 NSCLC,0.000141 µM
same,TGI,OVCAR-5 ovarian,6.97e-05 µM
same,TGI,HS 578T breast,> 100 µM
same,TGI,BT-549 breast,4.72e-05 µM
same,TGI,SK-MEL-5 melanoma,9.72e-05 µM
same,TGI,A498 renal,0.000198 µM
same,TGI,ACHN renal,0.000135 µM
same,TGI,NCI-H522 lung,4.05e-05 µM
same,TGI,RPMI-8226 leukemia,0.0001 µM
same,TGI,TK-10 renal,0.000395 µM
same,TGI,SN12C renal,3.64e-05 µM
same,TGI,HCC-2998 colon,0.0271 µM
same,TGI,SK-OV-3 ovarian,0.000153 µM
same,TGI,NCI-H460 lung,7.71e-05 µM
same,TGI,PC-3 prostate,0.000955 µM
same,TGI,SF-539 CNS,5.85e-05 µM
same,TGI,CCRF-CEM leukemia,0.025 µM
same,TGI,SK-MEL-28 melanoma,0.000145 µM
same,TGI,HCT-116 colon,3.5e-05 µM
same,TGI,EKVX NSCLC,2.03e-05 µM
same,TGI,HCT-15 colon,8.31e-05 µM
same,TGI,RXF 393 renal,0.000154 µM
same,TGI,HOP-62 NSCLC,4.25e-05 µM
same,TGI,SF-295 CNS,0.000289 µM
same,TGI,SW-620 colon,7.47e-05 µM
same,TGI,NCI-H23 lung,2.88e-05 µM
same,TGI,A549 NSCLC,9.83e-06 µM
same,TGI,MDA-N,7.4e-05 µM
same,TGI,OVCAR-4 ovarian,3.07e-05 µM
same,TGI,DU-145 prostate,1.66e-05 µM
same,TGI,HL-60(TB) leukemia,0.011 µM
same,TGI,T-47D breast,0.000185 µM
